Data as given in patent US12473291B2 (priority 2019, dated 2025).
Read-outs that look alike come from different tables or passages of the source.

What was measured:
SD rats = assay: animal or person; type: in vivo
KM mice = assay: animal or person; type: in vivo
[1] = Rattus norvegicus, SD rats (male, 220-300 g), injection via the tail vein, disappearance of righting reflex, read-out: ED50
[2] = SD rats, single tail vein injection at 2×ED50, time from disappearance to recovery of righting reflex
[3] = SD rats, single tail vein injection at 2×ED50, time from recovery of righting reflex to free crawling
[4] = KM mice, single tail vein injection at 2×ED50, time from disappearance to recovery of righting reflex
[5] = KM mice, single tail vein injection at 2×ED50, time from recovery of righting reflex to free crawling
[6] = Mus musculus, KM mice (male, 18-22 g), injection via the tail vein, disappearance of righting reflex, read-out: ED50

Compound | ED50 (SD rats; [1]) | 2ED50 duration (SD rats; [2]) | 2ED50 recovery time (SD rats; [3]) | Quality of recovery (SD rats; SD rats, tail vein injection) | 2ED50 duration (KM mice; [4]) | 2ED50 recovery time (KM mice; [5]) | Quality of recovery (KM mice; KM mice, tail vein injection) | ED50 (KM mice; [6]) | duration and recovery time compared with remimazolam (SD rats; rats, tail vein, in words) | effective dose compared with remimazolam (SD rats; rats, tail vein, in words) | duration and recovery time compared with remimazolam (KM mice; mice, tail vein, in words) | effective dose compared with remimazolam (KM mice; mice, tail vein, in words) | 2ED50 duration (SD rats; rat, in vivo) | 2ED50 recovery time (SD rats; rat, in vivo) | ED50 (SD rats; rat, in vivo) | Quality of recovery (SD rats; rat, in vivo) | 2ED50 duration (KM mice; mouse, in vivo) | 2ED50 recovery time (KM mice; mouse, in vivo) | ED50 (KM mice; mouse, in vivo) | Quality of recovery (KM mice; mouse, in vivo)
CCOC(=O)C1(OC(=O)CC[C@@H]2N=C(c3ccccn3)c3cc(Br)c(Br)cc3-n3c(C)cnc32)CC1 [Example 19] | 5.6 mg/kg | 4.07 min | 2.12 min | +++ (“+++” means 3-5 min) | 6.07 min | 2.09 min | ++++ (“++++” means 5-10 min) | 23.2 mg/kg | – | – | – | – | – | – | – | – | – | – | – | –
CCOC(=O)COC(=O)CC[C@@H]1N=C(c2ccccn2)c2cccc(Cl)c2-n2c(C)cnc21 [Example 37] | 5.7 mg/kg | 3.02 min | 2.51 min | ++ (“++” means 1-3 min) | 4.42 min | 1.58 min | ++ (“++” means 1-3 min) | 25.7 mg/kg | – | – | – | – | – | – | – | – | – | – | – | –
Cc1cnc2n1-c1c(Cl)c(Cl)c(Cl)c(Cl)c1C(c1ccccn1)=N[C@H]2CCC(=O)OCOC(=O)OC(C(C)C)C(C)C [Example 31] | 2.3 mg/kg | 1.23 min | 1.14 min | + (“+” means <1 min) | 2.13 min | 1.04 min | ++ (“++” means 1-3 min) | 17.3 mg/kg | significantly shorter | significantly lower | significantly shorter | significantly lower | – | – | – | – | – | – | – | –
(((((3-Methylbutane-2-yl)oxy)carbonyl)oxy) methyl 3-((4S)-9-bromo-8-fluoro-1-methyl-6- (pyridine-2-yl)-4H-benzo[f]imidazo [1,2-a][1,4]diaza-4-ylpropionate formate [Example 73] | – | – | – | – | – | – | – | – | – | – | – | – | 2.45 min | 2.44 min | 5.2 mg/kg | ++ (key: “+” means <1 mm; “++” means 1-3 min; “+++” means 3-5 min; “++++” means 5-10 min; “+++++” means >10 mm) | 3.33 min | 2.38 min | 26.3 mg/kg | +++ (key: “+” means <1 mm; “++” means 1-3 min; “+++” means 3-5 min; “++++” means 5-10 min; “+++++” means >10 mm)
CCCOC(=O)OCOC(=O)CC[C@@H]1N=C(c2ccccn2)c2c(ccc(Br)c2F)-n2c(C)cnc21 [Example 72, ((Propoxycarbonyl)oxy)methyl 3-((4S)-8-bromo-7-fluoro-1-methyl-6-(pyridine-2-yl)-4H-benzo[f]imidazo [1,2-a][1,4]diaza-4-ylpropionate sulfonate] | 4.9 mg/kg | 4.01 min | 2.43 min | ++ (“++” means 1-3 min) | 3.12 min | 2.48 min | +++ (“+++” means 3-5 min) | 32.5 mg/kg | – | – | – | – | – | – | – | – | – | – | – | –
Cc1cnc2n1-c1ccc(Br)cc1C(c1ccccn1)=N[C@H]2CCC(=O)OCOC(=O)OC(C)C [Example 48] | 5.3 mg/kg | 4.16 min | 2.42 min | +++ (“+++” means 3-5 min) | 8.56 min | 2.48 min | ++++ (“++++” means 5-10 min) | 27 mg/kg | – | – | – | – | – | – | – | – | – | – | – | –
C/C=C/C1CC(OCOC(=O)COC(=O)CC[C@@H]2N=C(c3ccccn3)c3cc(Br)c(Cl)cc3-n3c(C)cnc32)C(Br)CC1C(F)(F)F (stereo partly drawn) [Example 84, 2-(((2-Bromo-5-((E)-propan-1-en-1-yl)-4-(trifluoromethyl)cyclohexyl)oxy)methoxy)-2-oxoethyl-3-((4S)-8-bromo-9-chloro-1-methyl-6-(pyridine-2-yl)-4H-benzo[f]imidazo[1,2-a][1,4]diaza-4-yl)propionate] | 6.23 mg/kg | 2.18 min | 1.58 min | ++ (“++” means 1-3 min) | 3.16 min | 2.17 min | +++ (“+++” means 3-5 min) | 28.8 mg/kg | – | – | – | – | – | – | – | – | – | – | – | –
Cc1c(Br)cc2c(c1Cl)-n1c(C)cnc1[C@H](CCC(=O)OC(C)(C)NC(=O)OC1CCC1)N=C2c1ccccn1 [Example 66] | 4.8 mg/kg | 4.02 min | 2.17 min | ++ (“++” means 1-3 min) | 3.14 min | 2.35 min | +++ (“+++” means 3-5 min) | 30.4 mg/kg | – | – | – | – | – | – | – | – | – | – | – | –
